Results: patent US20060069132A1, “Azolecarboxamide herbicides” (priority 2004, published 2006)

Legend:
[1] = test system: velvetleaf; test: Test A pre-/postemergence herbicide test; type: in vivo, Abutilon theophrasti; details: for pest or weed control at 125 g/ha / pest or weed control at 500 g/ha: Abutilon theophrasti, 240 h, read-out: Velvetleaf plant response rating; for pest or weed control at 125 g/ha: 125 g ai/ha
How it was run: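 Greenhouse injury scoring (0–100, complete control = 100) at approximately ten days follows simultaneous pre- and postemergence application. Soil received a directed spray after seeding; seedlings of 2–10 cm at the one- to two-leaf stage were sprayed to runoff.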

[2] = test system: velvetleaf; test: Test B pre-/postemergence herbicide test; type: in vivo, Abutilon theophrasti
How it was run: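 Seeds were planted and treated preemergence with compounds formulated in a non-phytotoxic solvent mixture containing surfactant, while plants at the 1- to 4-leaf stage (2 to 18 cm) received postemergence sprays. Flooded paddy plants were grown to the 2-leaf stage. After 13 to 15 days in a greenhouse, injury was visually rated 0–100 against untreated controls.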

[3] = test system: ducksalad; test: Test C flooded paddy test; type: in vivo, Heteranthera limosa
[4] = test system: bermudagrass; test: Test C pre-/postemergence herbicide test; type: in vivo, Cynodon dactylon
Excerpt: (§1) Seeds of plant species selected from bermudagrass (Cynodon dactylon (L.) Pers.), Surinam grass (Urochloa decumbens (Staph) R. D. Webster, previously named Brachiaria decumbens Stapf), cocklebur (Xanthium strumarium L.), corn (Zea mays L.), large crabgrass (Digitaria sanguinalis (L.) Scop.), woolly cupgrass (Eriochloa villosa (Thunb.) Kunth), giant foxtail (Setaria faberi Herrm.), goosegrass (Eleusine indica (L.) Gaertn.), johnsongrass (Sorghum halepense (L.) Pers.), kochia (Kochia scoparia (L.) Schrad.), lambsquarters (Chenopodium album L.), morningglory (Ipomoea coccinea L.), eastern black nightshade (Solanum ptycanthum Dunal), yellow nutsedge (Cyperus esculentus L.), pigweed (Amaranthus retroflexus L.), common ragweed (Ambrosia elatior L.), soybean (Glycine max (L.) Merr.), common (oilseed) sunflower (Helianthus annuus L.) and velvetleaf (Abutilon theophrasti Medik.) were planted and treated preemergence with test chemicals formulated in a non-phytotoxic solvent mixture which included a surfactant.
(§2) At the same time, plants selected from these crop and weed species and also winter barley (Hordeum vulgare L.), blackgrass (Alopecurus myosuroides Huds.), canarygrass (Phalaris minor Retz.), chickweed (Stellaria media (L.) Vill.), downy bromegrass (Bromus tectorum L.), green foxtail (Setaria viridis (L.) Beauv.), Italian ryegrass (Lolium multiflorum Lam.), wheat (Triticum aestivum L.), wild oat (Avenafatua L.) and windgrass (Apera spica-venti (L.) Beauv.) were treated with postemergence applications of some of the test chemicals formulated in the same manner. Plants ranged in height from 2 to 18 cm (1- to 4-leaf stage) for postemergence treatments. Plant species in the flooded paddy test consisted of rice (Oryza sativa), smallflower umbrella sedge (Cyperus difformis L.), ducksalad (Heteranthera limosa (Sw.) Willd.) and barnyardgrass (Echinochloa crus-galli (L.) Beauv.) grown to the 2-leaf stage for testing. Treated plants and controls were maintained in a greenhouse for 12 to 14 days, after which time all species were compared to controls and visually evaluated. Plant response ratings, summarized in Table C, are based on a scale of 0 to 100 where 0 is no effect and 100 is complete control. A dash (-) response means no test result.

[5] = test system: large crabgrass; test: Test C pre-/postemergence herbicide test; type: in vivo, Digitaria sanguinalis; details: preemergence
Excerpt: as §1, §2

[6] = test system: kochia; test: Test C pre-/postemergence herbicide test; type: in vivo, Kochia scoparia; details: preemergence
Excerpt: as §1, §2

[7] = Postemergence, 500 g ai/ha, 0 to 100 scale, 0 no effect, 100 complete control
[8] = Postemergence, 2000 g ai/ha, 0 to 100 scale, 0 no effect, 100 complete control
[9] = Preemergence, 2000 g ai/ha, visual rating, 0 to 100 scale (0 no effect, 100 complete control)
[10] = preemergence, 500 g ai/ha, visual injury, 0 to 100 scale (0 no effect, 100 complete control)
[11] = postemergence, 125 g ai/ha, visual rating, scale 0 (no effect) to 100 (complete control)
[12] = 125 g ai/ha, scale 0 to 100 (0 no effect, 100 complete control)
[13] = 250 g ai/ha, scale of 0 to 100, 0 is no effect, 100 is complete control
[14] = 500 g ai/ha, visual rating after 12 to 14 days, scale 0 to 100 (0 no effect, 100 complete control)
[15] = Abutilon theophrasti, post-emergence, 336 h, postemergence, 125 g ai/ha, visual rating, scale 0 (no effect) to 100 (complete control), read-out: Velvetleaf plant response rating
[16] = Abutilon theophrasti, pre-emergence, 336 h, 125 g ai/ha, 0 = no effect, 100 = complete control, read-out: Velvetleaf plant response rating (0 to 100 scale)
[17] = 500 g ai/ha, visual rating, 0 = no effect, 100 = complete control, preemergence
[18] = postemergence, 500 g ai/ha, scale 0 to 100, 0 is no effect, 100 is complete control
[19] = 125 g ai/ha, visual rating, scale 0 (no effect) to 100 (complete control), postemergence
[20] = 125 g ai/ha, 0 is no effect, 100 is complete control, preemergence

Q: What does the source list for `C=Cn1nc(C(C)(C)C)cc1C(=O)Nc1cccc(C(C)=O)c1` [Compound 127]?
A: Velvetleaf plant response rating [1, 7]: 0; Plant response rating, Velvetleaf [1, 8]: 0; Velvetleaf plant response rating [1, 9]: 30; Velvetleaf plant response rating [1, 10]: 10; Plant response rating, Velvetleaf ([2]; 500 g ai/ha, visual rating 0-100, 0 no effect, 100 complete control, preemergence): 20; Velvetleaf plant response rating [2, 11]: 0; Velvetleaf plant response rating ([2]; postemergence, 500 g ai/ha, visual rating, scale 0 (no effect) to 100 (complete control)): 10; Plant response rating, Velvetleaf ([2]; preemergence, 125 g ai/ha, 0 to 100 scale, 0 is no effect, 100 is complete control): 10; Ducksalad plant response rating ([3]; 62 g ai/ha, scale 0 to 100 (0 no effect, 100 complete control)): 0; Ducksalad plant response rating [3, 12]: 15; Ducksalad plant response rating [3, 13]: 20; Plant response rating, Ducksalad [3, 14]: 80

Q: What does the source list for `CCc1cn(C(C)(C)C)nc1C(=O)Nc1cccc(C(=O)N(CC)CC)c1` [Compound 168, N-[3-[(diethylamino)carbonyl]phenyl]-1-(1,1-dimethylethyl)-4-ethyl-1H-pyrazole-3-carboxamide]?
A: pest or weed control at 31 g/ha ([2]; Abutilon theophrasti, post-emergence, 336 h, postemergence, 31 g ai/ha, scale 0 to 100, read-out: Velvetleaf plant response rating): 10%; pest or weed control at 125 g/ha [2, 15]: 20%; pest or weed control at 125 g/ha [2, 16]: 60%

Q: For `CCn1nc(C(C)(C)C)c(F)c1C(=O)Nc1cc(C(=O)N(C)C)ccc1F` [Compound 276, N-[5-[(dimethylamino)carbonyl]-2-fluorophenyl]-3-(1,1-dimethylethyl)-1-ethyl-4-fluoro-1H-pyrazole-5-carboxamide], which pest or weed control at 125 g/ha [2, 15] is on record?
A: 10%

Q: What about the pest or weed control at 500 g/ha ([2]; Abutilon theophrasti, post-emergence, 336 h, postemergence, 500 g ai/ha, scale 0 to 100, 0 is no effect, 100 is complete control, read-out: Velvetleaf plant response rating) of the same molecule?
A: 40%

Q: And the pest or weed control at 125 g/ha [2, 16]?
A: 0%

Q: What about the pest or weed control at 500 g/ha ([2]; Abutilon theophrasti, pre-emergence, 336 h, 500 g ai/ha, visual rating, 0 = no effect, 100 = complete control, read-out: Plant response rating, Velvetleaf) of the same molecule?
A: 50%

Q: And the pest or weed control at 62 g/ha ([3]; Heteranthera limosa, 62 g ai/ha, scale 0 to 100, read-out: Ducksalad plant response rating)?
A: 0%

Q: And the pest or weed control at 125 g/ha ([3]; Heteranthera limosa, 125 g ai/ha, scale 0 to 100 (0 no effect, 100 complete control), read-out: Ducksalad plant response rating)?
A: 20%

Q: What about the pest or weed control at 250 g/ha ([3]; Heteranthera limosa, 250 g ai/ha, scale of 0 to 100, 0 is no effect, 100 is complete control, read-out: Ducksalad plant response rating) of the same molecule?
A: 70%

Q: What about the pest or weed control at 500 g/ha ([3]; Heteranthera limosa, 500 g ai/ha, visual rating after 12 to 14 days, scale 0 to 100 (0 no effect, 100 complete control), read-out: Plant response rating, Ducksalad) of the same molecule?
A: 85%

Q: Which results are given for `C=CCN(C)C(=O)c1cccc(NC(=O)c2cc(C(C)(C)C)nn2CC)c1` [Compound 285]?
A: Velvetleaf plant response rating [1, 7]: 60; Plant response rating, Velvetleaf [1, 8]: 75; Velvetleaf plant response rating [1, 9]: 40; Velvetleaf plant response rating [1, 10]: 35; Velvetleaf plant response rating (0 to 100 scale) ([2]; 125 g ai/ha, 0 = no effect, 100 = complete control, preemergence): 30; Plant response rating, Velvetleaf [2, 17]: 100; Velvetleaf plant response rating [2, 11]: 10; Velvetleaf plant response rating [2, 18]: 40; Ducksalad plant response rating ([3]; 62 g ai/ha, scale 0 to 100): 45; Ducksalad plant response rating [3, 12]: 80; Ducksalad plant response rating [3, 13]: 90; Plant response rating, Ducksalad [3, 14]: 90

Q: With `CCOC(=O)c1cccc(NC(=O)c2cc(C(C)(C)C)nn2C)n1` [Compound 313] as the molecule, how does the “Velvetleaf plant response rating” value [1, 7] read?
A: 40

Q: What about the “Plant response rating, Velvetleaf” value [1, 8] of the same molecule?
A: 50

Q: What about the “Velvetleaf plant response rating” value [1, 9] of the same molecule?
A: 80

Q: And the “Velvetleaf plant response rating” value [1, 10]?
A: 65

Q: What about the “Velvetleaf plant response rating” value [2, 19] of the same molecule?
A: 60

Q: What about the “Plant response rating, Velvetleaf” value [2, 17] of the same molecule?
A: 100

Q: And the “Velvetleaf plant response rating” value [2, 18]?
A: 70

Q: And the “Ducksalad plant response rating” value ([3]; 16 g ai/ha, scale 0 to 100)?
A: 0

Q: What about the “Ducksalad plant response rating” value ([3]; 31 g ai/ha, scale 0 to 100) of the same molecule?
A: 0

Q: And the “Ducksalad plant response rating” value ([3]; 62 g ai/ha, scale 0 to 100)?
A: 0

Q: What about the “Ducksalad plant response rating” value [3, 12] of the same molecule?
A: 30

Q: How did the “Plant response rating (0 to 100 scale), Velvetleaf” value [2, 20] turn out when `CCNC(=O)c1ccc(F)c(NC(=O)c2c3c(nn2CC)C(C)(C)CC3)c1` [Compound 353] was run?
A: 10

Q: What about the “Velvetleaf plant response rating” value [2, 19] of the same molecule?
A: 20

Q: What about the “Velvetleaf plant response rating” value [2, 18] of the same molecule?
A: 20

Q: And the “Ducksalad plant response rating” value ([3]; 62 g ai/ha, scale 0 to 100)?
A: 0

Q: What about the “Ducksalad plant response rating” value [3, 12] of the same molecule?
A: 0

Q: What about the “Ducksalad plant response rating” value [3, 13] of the same molecule?
A: 30

Q: What about the “Plant response rating, Ducksalad” value [3, 14] of the same molecule?
A: 30

Q: With `CCc1nn(C(C)(C)C)nc1C(=O)Nc1cccc(C(=O)N(C)CC)c1` [Compound 384] as the molecule, how does the “Plant response rating (0 to 100 scale), Velvetleaf” value [2, 20] read?
A: 70

Q: And the “Velvetleaf plant response rating” value [2, 19]?
A: 30

Q: And the “Velvetleaf plant response rating” value ([2]; Postemergence, 500 g ai/ha, scale 0 (no effect) to 100 (complete control))?
A: 70

Q: What about the “Plant response rating, Bermudagrass” value ([4]; 31 g ai/ha, scale 0 to 100, 0 no effect, 100 complete control, last section of Table C (species set of preemergence test)) of the same molecule?
A: 65

Q: And the “Plant response rating, Bermudagrass” value ([4]; 62 g ai/ha, preemergence, scale 0 to 100, 0 no effect, 100 complete control)?
A: 100

Q: What about the “Plant response rating (0 = no effect, 100 = complete control), Bermudagrass” value ([4]; 125 g ai/ha, preemergence) of the same molecule?
A: 100

Q: And the “Plant response rating, Bermudagrass” value ([4]; 250 g ai/ha, scale 0-100, preemergence)?
A: 100

Q: And the “Plant response rating, Crabgrass, Large” value ([5]; 62 g ai/ha, scale 0 to 100)?
A: 100

Q: What about the “Plant response rating (0 = no effect, 100 = complete control), Crabgrass, Large” value ([5]; 125 g ai/ha) of the same molecule?
A: 100

Q: What about the “Plant response rating, Crabgrass, Large” value ([5]; 250 g ai/ha, scale 0-100) of the same molecule?
A: 100

Q: What about the “Plant response rating, Kochia” value ([6]; 62 g ai/ha, scale 0 to 100) of the same molecule?
A: 90

Q: And the “Plant response rating (0 = no effect, 100 = complete control), Kochia” value ([6]; 125 g ai/ha)?
A: 100

Q: And the “Plant response rating, Kochia” value ([6]; 250 g ai/ha, scale 0-100)?
A: 100

Q: What about the “Ducksalad plant response rating” value ([3]; 62 g ai/ha, scale 0 to 100) of the same molecule?
A: 80

Q: What about the “Ducksalad plant response rating” value [3, 12] of the same molecule?
A: 80

Q: What about the “Ducksalad plant response rating” value [3, 13] of the same molecule?
A: 80

Q: And the “Plant response rating, Ducksalad” value [3, 14]?
A: 85

Q: Which pest or weed control at 125 g/ha ([1]; post-emergence, Postemergence, 0 to 100 scale, 0 no effect, 100 complete control) does the source give for `CCNC(=O)c1cccc(NC(=O)c2nc(C(C)(C)C)nn2CC)c1` [Compound 446, 3-(1,1-dimethylethyl)-1-ethyl-N-[3-[(ethylamino)carbonyl]phenyl]-1H-1,2,4-triazole-5-carboxamide] here?
A: 30%

Q: What about the pest or weed control at 500 g/ha ([1]; post-emergence, Postemergence, 500 g ai/ha, 0 to 100 scale, 0 no effect, 100 complete control) of the same molecule?
A: 60%

Q: And the pest or weed control at 125 g/ha ([1]; pre-emergence, preemergence, visual injury, 0 to 100 scale (0 no effect, 100 complete control))?
A: 10%

Q: What about the pest or weed control at 500 g/ha ([1]; pre-emergence, preemergence, 500 g ai/ha, visual injury, 0 to 100 scale (0 no effect, 100 complete control)) of the same molecule?
A: 20%
